Key:
Human opioid (ORL1) = target: T1, Human opioid (ORL1) (Homo sapiens, UniProt P41146); assay: Radioligand binding, human opioid ORL1 membranes, FlashPlate, [125I]-Nociceptin; conditions: compound at 10 μM; [125I]-Nociceptin, human ORL1 membranes; 10 µM
T1 construct: purchased Perkin Elmer Biosignal
Summary of the method: (§1)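 Cloned human receptor membranes were coated onto FlashPlate wells and incubated with radioligand and compound (added from a 0.5 mM DMSO daughter plate) for 1 hour at room temperature in the dark. Scintillation counting gave percent inhibition, with DMSO defining total and reference ligand defining non-specific binding.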

Human Melanocortin (MC4) = target: T2, Human Melanocortin (MC4) (Homo sapiens, UniProt P32245); assay: Radioligand binding, human melanocortin MC4 membranes, FlashPlate, [125I]-NDP-αMSH; conditions: compound at 10 μM, [125I]-NDP-αMSH, human MC4 membranes
T2 construct: purchased Perkin Elmer Biosignal
T2 sequence (P32245 whole entry): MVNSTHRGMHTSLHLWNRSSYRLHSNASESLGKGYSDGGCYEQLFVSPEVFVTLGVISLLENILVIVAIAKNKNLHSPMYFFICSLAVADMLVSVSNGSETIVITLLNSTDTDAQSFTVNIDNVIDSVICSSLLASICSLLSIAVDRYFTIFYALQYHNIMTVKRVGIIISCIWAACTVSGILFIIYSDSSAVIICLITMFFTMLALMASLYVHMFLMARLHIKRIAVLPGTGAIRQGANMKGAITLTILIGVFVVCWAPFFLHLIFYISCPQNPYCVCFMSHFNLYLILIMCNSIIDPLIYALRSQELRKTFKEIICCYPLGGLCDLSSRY
Summary of the method: as §1

Human melanocortin (MC5) = target: T3, Human melanocortin (MC5) (Homo sapiens, UniProt P33032); assay: Radioligand binding, human melanocortin MC5 membranes, FlashPlate, [125I]-NDP-αMSH; conditions: compound at 10 μM, [125I]-NDP-αMSH, human MC5 membranes
T3 construct: purchased Perkin Elmer Biosignal
T3 sequence (P33032 whole entry): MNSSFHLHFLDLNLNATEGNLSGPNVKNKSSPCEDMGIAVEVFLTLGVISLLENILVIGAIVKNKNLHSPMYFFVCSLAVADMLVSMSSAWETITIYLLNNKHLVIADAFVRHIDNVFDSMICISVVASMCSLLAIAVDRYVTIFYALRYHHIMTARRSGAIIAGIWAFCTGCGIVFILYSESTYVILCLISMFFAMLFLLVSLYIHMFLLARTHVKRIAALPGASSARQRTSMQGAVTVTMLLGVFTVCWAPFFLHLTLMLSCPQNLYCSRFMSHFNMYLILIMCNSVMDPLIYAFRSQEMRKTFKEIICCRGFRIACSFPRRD
Summary of the method: as §1

[1] = target: T4, Human melanin-concentrating hormone (MCH1) (Homo sapiens, UniProt Q99705); assay: Radioligand binding, human melanin-concentrating hormone MCH1 membranes, FlashPlate, [125I]-S36057; conditions: compound at 10 μM, [125I]-S36057, human MCH1 membranes
T4 construct: purchased Perkin Elmer Biosignal
T4 sequence (Q99705 whole entry): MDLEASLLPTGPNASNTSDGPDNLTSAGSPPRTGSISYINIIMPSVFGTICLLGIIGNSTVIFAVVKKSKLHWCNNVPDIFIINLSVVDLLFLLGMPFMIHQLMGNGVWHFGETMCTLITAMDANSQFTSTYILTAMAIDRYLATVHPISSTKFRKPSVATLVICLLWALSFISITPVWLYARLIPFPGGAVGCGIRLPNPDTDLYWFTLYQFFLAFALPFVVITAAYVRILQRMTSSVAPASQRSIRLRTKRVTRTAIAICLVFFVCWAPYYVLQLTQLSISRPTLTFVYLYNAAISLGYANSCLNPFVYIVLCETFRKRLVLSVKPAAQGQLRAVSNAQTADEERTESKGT
Summary of the method: as §1

Human δ-opioid (DOP) = target: T5, Human δ-opioid (DOP) (Homo sapiens, UniProt P41143); assay: Radioligand binding, human δ-opioid (DOP) membranes, FlashPlate, [3H]-Bremazocine; conditions: compound at 10 μM; [3H]-Bremazocine, human DOP membranes
T5 construct: purchased Perkin Elmer Biosignal
T5 sequence (P41143 whole entry): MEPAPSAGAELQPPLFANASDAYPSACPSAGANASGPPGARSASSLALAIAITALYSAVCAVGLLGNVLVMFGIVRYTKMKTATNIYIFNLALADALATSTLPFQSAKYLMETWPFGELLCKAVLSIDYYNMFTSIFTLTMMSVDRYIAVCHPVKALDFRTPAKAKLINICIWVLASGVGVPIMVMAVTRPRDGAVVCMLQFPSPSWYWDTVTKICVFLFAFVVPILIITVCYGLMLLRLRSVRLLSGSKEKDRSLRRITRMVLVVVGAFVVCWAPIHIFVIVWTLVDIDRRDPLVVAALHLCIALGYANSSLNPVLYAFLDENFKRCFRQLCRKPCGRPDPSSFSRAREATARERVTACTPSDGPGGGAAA
Summary of the method: as §1

Human Melanocortin (MC3) = target: T6, Human Melanocortin (MC3) (Homo sapiens, UniProt P41968); assay: Radioligand binding, human melanocortin MC3 membranes, FlashPlate, [125I]-NDP-αMSH; conditions: compound at 10 μM, [125I]-NDP-αMSH, human MC3 membranes
T6 construct: purchased Perkin Elmer Biosignal
T6 sequence (P41968 whole entry): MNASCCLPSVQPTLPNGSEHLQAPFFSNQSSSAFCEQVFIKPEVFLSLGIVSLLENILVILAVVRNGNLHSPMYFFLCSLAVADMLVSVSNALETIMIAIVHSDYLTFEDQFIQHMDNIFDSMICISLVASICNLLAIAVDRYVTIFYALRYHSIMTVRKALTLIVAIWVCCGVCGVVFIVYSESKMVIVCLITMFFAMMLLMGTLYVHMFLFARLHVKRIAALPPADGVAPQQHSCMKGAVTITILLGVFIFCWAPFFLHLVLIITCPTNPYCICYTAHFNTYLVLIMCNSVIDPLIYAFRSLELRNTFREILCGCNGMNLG
Summary of the method: as §1

Human κ-Opioid (KOP) = target: T7, Human κ-Opioid (KOP) (Homo sapiens, UniProt P41145); assay: Radioligand binding, human κ-opioid (KOP) membranes, filtration, [3H]-Diprenorphine; conditions: compound at 10 μM, [3H]-Diprenorphine, human KOP membranes
T7 construct: purchased Perkin Elmer Biosignal
T7 sequence (P41145 whole entry): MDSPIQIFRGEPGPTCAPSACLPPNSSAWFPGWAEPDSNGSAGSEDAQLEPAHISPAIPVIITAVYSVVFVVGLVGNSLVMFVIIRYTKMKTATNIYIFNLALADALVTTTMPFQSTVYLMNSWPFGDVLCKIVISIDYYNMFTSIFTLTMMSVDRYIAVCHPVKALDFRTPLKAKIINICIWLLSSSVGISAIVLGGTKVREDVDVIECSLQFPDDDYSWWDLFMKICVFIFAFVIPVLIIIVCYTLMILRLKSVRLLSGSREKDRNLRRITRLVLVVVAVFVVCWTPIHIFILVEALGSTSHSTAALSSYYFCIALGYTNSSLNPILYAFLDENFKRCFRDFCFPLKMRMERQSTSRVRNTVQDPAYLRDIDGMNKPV
Summary of the method: (§2)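 Filtration binding on cloned human receptor membranes (1 Unit/well), [125I]-Substance P for NK1 and [3H]-Diprenorphine for KOP, 1 h at room temperature. Filters PEI-presoaked, washed with cold 50 mM Tris-HCl pH 7.4, counted by scintillation; percent inhibition calculated, reference ligand defining non-specific binding.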

Mouse urotensin (mUR2) = target: T8, Mouse urotensin (mUR2) (Mus musculus, UniProt Q8VIH9); assay: Radioligand binding, mouse urotensin mUR2 membranes, FlashPlate, [125I]-Urotensin II; conditions: compound at 10 μM; [125I]-Urotensin II, mouse mUR2 membranes
T8 construct: purchased Perkin Elmer Biosignal
T8 sequence (Q8VIH9 1-385): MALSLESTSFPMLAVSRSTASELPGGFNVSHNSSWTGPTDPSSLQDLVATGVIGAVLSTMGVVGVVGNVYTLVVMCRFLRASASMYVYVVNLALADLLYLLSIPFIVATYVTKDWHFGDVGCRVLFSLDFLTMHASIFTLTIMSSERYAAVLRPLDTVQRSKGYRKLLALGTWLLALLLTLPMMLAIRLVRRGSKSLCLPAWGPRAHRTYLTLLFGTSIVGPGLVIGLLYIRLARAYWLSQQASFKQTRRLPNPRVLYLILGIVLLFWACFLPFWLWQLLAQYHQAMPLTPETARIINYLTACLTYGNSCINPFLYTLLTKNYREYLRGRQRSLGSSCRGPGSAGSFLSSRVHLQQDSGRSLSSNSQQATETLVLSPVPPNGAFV
Summary of the method: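 Cloned mouse urotensin (mUR2) receptor membranes from Perkin Elmer Biosignal were immobilized in FlashPlate microplates using a proprietary coating. Each well got 19.5 μl buffer, then 0.5 μl of DMSO, reference ligand, or compound. Adding 5 μl of [125I]-Urotensin II, diluted to 5× final concentration in binding buffer, started binding. Plates were sealed with TopSeal-A and incubated 1 hour at room temperature in the dark. Wells were counted for 30 seconds each on a TopCount after a 60-second delay, and percentage inhibition was calculated.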

[2] = target: T9, Human neuropeptide Y (NPY-Y1) (Homo sapiens, UniProt P25929); assay: Radioligand binding, human neuropeptide Y NPY-Y1 membranes, FlashPlate, [125I]-PYY; conditions: compound at 10 μM; [125I]-PYY, human NPY-Y1 membranes
T9 construct: purchased Perkin Elmer Biosignal
T9 sequence (P25929 1-384): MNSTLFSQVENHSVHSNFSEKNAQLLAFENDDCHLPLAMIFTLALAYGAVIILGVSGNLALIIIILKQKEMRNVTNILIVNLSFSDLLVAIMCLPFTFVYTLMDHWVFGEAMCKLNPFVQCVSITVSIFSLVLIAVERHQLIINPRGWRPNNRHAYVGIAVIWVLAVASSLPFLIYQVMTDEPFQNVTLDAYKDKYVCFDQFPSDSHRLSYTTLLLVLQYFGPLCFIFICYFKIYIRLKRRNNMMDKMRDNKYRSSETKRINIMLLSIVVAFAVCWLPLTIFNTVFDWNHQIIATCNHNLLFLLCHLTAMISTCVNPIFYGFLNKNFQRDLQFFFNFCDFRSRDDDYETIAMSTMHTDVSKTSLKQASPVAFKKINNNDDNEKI
Summary of the method: as §1

Human neurokinin (NK1) = target: T10, Human neurokinin (NK1) (Homo sapiens, UniProt P25103); assay: Radioligand binding, human neurokinin NK1 membranes, filtration, [125I]-Substance P; conditions: compound at 10 μM; [125I]-Substance P, human NK1 membranes
T10 construct: purchased Perkin Elmer Biosignal
T10 sequence (P25103 whole entry): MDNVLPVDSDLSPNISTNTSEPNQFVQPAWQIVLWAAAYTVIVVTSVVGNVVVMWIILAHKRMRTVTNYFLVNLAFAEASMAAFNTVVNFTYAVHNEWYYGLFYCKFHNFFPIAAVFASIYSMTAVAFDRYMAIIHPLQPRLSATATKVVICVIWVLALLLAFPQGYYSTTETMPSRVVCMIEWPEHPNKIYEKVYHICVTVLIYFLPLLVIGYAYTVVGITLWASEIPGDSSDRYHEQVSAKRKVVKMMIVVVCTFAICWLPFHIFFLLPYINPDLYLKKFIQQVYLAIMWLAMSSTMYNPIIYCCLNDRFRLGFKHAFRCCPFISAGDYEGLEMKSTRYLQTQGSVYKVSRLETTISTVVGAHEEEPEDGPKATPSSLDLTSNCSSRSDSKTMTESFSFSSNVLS
Summary of the method: as §2

Human μ-opioid (MOP) = target: T11, Human μ-opioid (MOP) (Homo sapiens, UniProt P35372); assay: Radioligand binding, human μ-opioid (MOP) membranes, FlashPlate, [3H]-Naloxone; conditions: compound at 10 μM, [3H]-Naloxone, human MOP membranes
T11 construct: purchased Perkin Elmer Biosignal
T11 sequence (P35372 whole entry): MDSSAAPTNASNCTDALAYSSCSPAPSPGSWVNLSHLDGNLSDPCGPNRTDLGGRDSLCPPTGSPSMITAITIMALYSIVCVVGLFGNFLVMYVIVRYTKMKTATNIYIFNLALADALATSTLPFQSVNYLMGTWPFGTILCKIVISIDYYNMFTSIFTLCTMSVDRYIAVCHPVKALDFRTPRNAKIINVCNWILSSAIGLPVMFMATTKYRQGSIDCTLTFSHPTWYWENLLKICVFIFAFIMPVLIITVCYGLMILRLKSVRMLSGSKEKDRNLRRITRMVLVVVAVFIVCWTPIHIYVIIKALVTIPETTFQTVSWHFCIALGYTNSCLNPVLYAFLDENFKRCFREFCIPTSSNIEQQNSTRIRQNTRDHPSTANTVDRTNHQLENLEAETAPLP
Summary of the method: as §1

T1 sequence (P41146 whole entry): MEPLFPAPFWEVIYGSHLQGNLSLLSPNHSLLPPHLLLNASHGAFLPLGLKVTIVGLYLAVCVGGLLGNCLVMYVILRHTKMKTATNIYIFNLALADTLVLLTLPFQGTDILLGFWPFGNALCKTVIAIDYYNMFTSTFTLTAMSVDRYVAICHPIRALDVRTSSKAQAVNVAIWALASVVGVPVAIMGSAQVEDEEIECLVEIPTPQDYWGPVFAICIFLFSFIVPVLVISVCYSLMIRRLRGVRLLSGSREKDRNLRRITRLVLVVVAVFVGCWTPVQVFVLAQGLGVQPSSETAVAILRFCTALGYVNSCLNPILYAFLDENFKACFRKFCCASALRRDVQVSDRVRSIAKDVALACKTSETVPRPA

Row | SMILES | A10: inhibition of radioligand binding (Human opioid (ORL1)) | A4: inhibition of radioligand binding (Human Melanocortin (MC4)) | A5: inhibition of radioligand binding (Human melanocortin (MC5)) | A6: inhibition of radioligand binding ([1]; 10 µM) | A1: inhibition of radioligand binding (Human δ-opioid (DOP)) | A3: inhibition of radioligand binding (Human Melanocortin (MC3); 10 µM) | A2: inhibition of radioligand binding (Human κ-Opioid (KOP)) | A11: inhibition of radioligand binding (Mouse urotensin (mUR2)) | A9: inhibition of radioligand binding [2] | A8: inhibition of radioligand binding (Human neurokinin (NK1)) | A7: inhibition of radioligand binding (Human μ-opioid (MOP)) | A6: inhibition of radioligand binding [1] | A3: inhibition of radioligand binding (Human Melanocortin (MC3)) | A2: inhibition of radioligand binding (Human κ-Opioid (KOP); 10 µM) | A7: inhibition of radioligand binding (Human μ-opioid (MOP); 10 µM) | A4: inhibition of radioligand binding (Human Melanocortin (MC4); 10 µM) | A5: inhibition of radioligand binding (Human melanocortin (MC5); 10 µM)
1 | NCCC(=O)NC1C(OCc2ccc3ccccc3c2)OC(COCc2ccc(Cl)cc2)C(O)C1OCc1ccccc1 (stereo not shown) [compound 389] | + (“+” indicates greater than 50% inhibition at 10 μM) | + (“+” indicates greater than 50% inhibition at 10 μM) | + (“+” indicates greater than 50% inhibition at 10 μM) | − (“−” indicates less than 50% inhibition at 10 μM) | − (“−” indicates less than 50% inhibition at 10 μM) | + (“+” indicates greater than 50% inhibition at 10 μM) | − (“−” indicates less than 50% inhibition at 10 μM) | − (“−” indicates less than 50% inhibition at 10 μM) | − (“−” indicates less than 50% inhibition at 10 μM) | + (“+” indicates greater than 50% inhibition at 10 μM) | − (“−” indicates less than 50% inhibition at 10 μM) |  |  |  |  |  | 
2 | NCCCC(=O)NC1C(OCc2ccc3ccccc3c2)OC(COCc2ccc3ccccc3c2)C(O)C1OCc1ccc(Cl)cc1 (stereo not shown) [compound 390] | + (“+” indicates greater than 50% inhibition at 10 μM) | + (“+” indicates greater than 50% inhibition at 10 μM) | + (“+” indicates greater than 50% inhibition at 10 μM) |  | − (“−” indicates less than 50% inhibition at 10 μM) |  |  | − (“−” indicates less than 50% inhibition at 10 μM) | − (“−” indicates less than 50% inhibition at 10 μM) | + (“+” indicates greater than 50% inhibition at 10 μM) |  | + (“+” indicates greater than 50% inhibition at 10 μM) | + (“+” indicates greater than 50% inhibition at 10 μM) | − (“−” indicates less than 50% inhibition at 10 μM) | − (“−” indicates less than 50% inhibition at 10 μM) |  | 
3 | NCCCC(=O)NC1C(OCc2ccc3ccccc3c2)OC(COCc2ccccc2)C(O)C1OCc1ccc(Cl)cc1 (stereo not shown) [compound 391] | − (“−” indicates less than 50% inhibition at 10 μM) |  |  | − (“−” indicates less than 50% inhibition at 10 μM) | − (“−” indicates less than 50% inhibition at 10 μM) |  | − (“−” indicates less than 50% inhibition at 10 μM) | − (“−” indicates less than 50% inhibition at 10 μM) | − (“−” indicates less than 50% inhibition at 10 μM) | + (“+” indicates greater than 50% inhibition at 10 μM) |  |  | − (“−” indicates less than 50% inhibition at 10 μM) |  | − (“−” indicates less than 50% inhibition at 10 μM) | + (“+” indicates greater than 50% inhibition at 10 μM) | − (“−” indicates less than 50% inhibition at 10 μM)
4 | NCCCC(=O)NC1C(OCc2ccc3ccccc3c2)OC(COCc2ccc(Cl)cc2)C(O)C1OCc1ccc(Cl)cc1 (stereo not shown) [compound 392] | − (“−” indicates less than 50% inhibition at 10 μM) | + (“+” indicates greater than 50% inhibition at 10 μM) | + (“+” indicates greater than 50% inhibition at 10 μM) | − (“−” indicates less than 50% inhibition at 10 μM) | − (“−” indicates less than 50% inhibition at 10 μM) |  | − (“−” indicates less than 50% inhibition at 10 μM) | − (“−” indicates less than 50% inhibition at 10 μM) | − (“−” indicates less than 50% inhibition at 10 μM) | + (“+” indicates greater than 50% inhibition at 10 μM) |  |  | + (“+” indicates greater than 50% inhibition at 10 μM) |  | − (“−” indicates less than 50% inhibition at 10 μM) |  | 
5 | NCCCC(=O)NC1C(OCc2ccc3ccccc3c2)OC(COCc2ccc3ccccc3c2)C(O)C1OCc1ccc2ccccc2c1 (stereo not shown) [compound 393] | − (“−” indicates less than 50% inhibition at 10 μM) |  | + (“+” indicates greater than 50% inhibition at 10 μM) | − (“−” indicates less than 50% inhibition at 10 μM) | − (“−” indicates less than 50% inhibition at 10 μM) | + (“+” indicates greater than 50% inhibition at 10 μM) | − (“−” indicates less than 50% inhibition at 10 μM) | − (“−” indicates less than 50% inhibition at 10 μM) | − (“−” indicates less than 50% inhibition at 10 μM) | + (“+” indicates greater than 50% inhibition at 10 μM) |  |  |  |  | − (“−” indicates less than 50% inhibition at 10 μM) | + (“+” indicates greater than 50% inhibition at 10 μM) | 

From patent publication US20080009418A1, “Selective Inhibitors” (Alchemia LTD., priority 2004, published 2008)
